Converted amounts (≈) assume the structure as drawn.
Key:
[1] = test system: ATCC43300 (MRSA); assay: In vitro antibacterial activity (MIC) against MRSA; format: cell-based, Methicillin-resistant Staphylococcus aureus; conditions: MRSA strain ATCC43300; method of Pharmacopoeia of the People's Republic of China (2015 edition)
Experimental: (§1) An antibacterial activity of the compounds in Table 1 is determined in vitro, and a minimum inhibitory concentration (MIC) is read. The determination method refers to the method of the Pharmacopoeia of the People's Republic of China (2015 edition). The MRSA detection strain is purchased from ATCC, and the VRE detection strain is from the clinically isolated drug-resistant strain 07-W3-45 from Shanghai Huashan Hospital. Known antibiotic oritavancin (phosphate) is used for a reference drug.

[2] = test system: Clinical isolates 07-W3-45 (VRE); assay: In vitro antibacterial activity (MIC) against VRE; format: cell-based, Vancomycin-resistant Enterococcus; conditions: clinically isolated drug-resistant strain 07-W3-45 from Shanghai Huashan Hospital
Experimental: as §1

[3] = test system: wild AB zebrafish; assay: Zebrafish toxicity test; format: in vivo; conditions: intravenous injection, 72 hours of treatment, samples in phosphate form
Experimental: A zebrafish toxicity test of the compounds in Table 1 is also tested. Randomly select wild AB zebrafish in a six-well plate, and inject each test sample at a dose of 50, 100, 150, 200, and 250 ng/tail intravenously. At the same time, a normal control group and a solvent control group (aqueous phosphoric acid) are set; During this experiment, the death of zebrafish is observed and recorded every day and the dead fish are removed. After 72 hours of treatment, the death of zebrafish is counted. Calculate the LD50 of each test product to zebrafish.
All samples are tested for zebrafish toxicity in phosphate form.

| SMILES | MIC ATCC43300 (MRSA) [1] | MIC Clinical isolates 07-W3-45 (VRE) [2] | Zebrafish LD50 [3] |
| --- | --- | --- | --- |
| CNC(CC(C)C)C(=O)NC1C(=O)NC(CC(N)=O)C(=O)NC2C(=O)NC3C(=O)NC(C(=O)NC(C(=O)O)c4cc(O)cc(O)c4-c4cc3ccc4O)C(OC3CC(C)(N)C(O)C(C)O3)c3ccc(c(Cl)c3)Oc3cc2cc(c3OC2OC(CO)C(O)C(O)C2OC2CC(C)(NCc3ccc(OCc4ccccc4)cc3)C(O)C(C)O2)Oc2ccc(cc2Cl)C1O (stereo not drawn) [Compound 1] | 0.5 µg/mL (≈ 0.28 µM) | 2 µg/mL (≈ 1.12 µM) | 139 ng/tail |
| CNC(CC(C)C)C(=O)NC1C(=O)NC(CC(N)=O)C(=O)NC2C(=O)NC3C(=O)NC(C(=O)NC(C(=O)O)c4cc(O)cc(O)c4-c4cc3ccc4O)C(OC3CC(C)(N)C(O)C(C)O3)c3ccc(c(Cl)c3)Oc3cc2cc(c3OC2OC(CO)C(O)C(O)C2OC2CC(C)(NCc3ccc(OCCc4ccccc4)cc3)C(O)C(C)O2)Oc2ccc(cc2Cl)C1O (stereo not drawn) [Compound 2] | 0.5 µg/mL (≈ 0.277 µM) | 2 µg/mL (≈ 1.11 µM) | 163 ng/tail |
| CNC(CC(C)C)C(=O)NC1C(=O)NC(CC(N)=O)C(=O)NC2C(=O)NC3C(=O)NC(C(=O)NC(C(=O)O)c4cc(O)cc(O)c4-c4cc3ccc4O)C(OC3CC(C)(N)C(O)C(C)O3)c3ccc(c(Cl)c3)Oc3cc2cc(c3OC2OC(CO)C(O)C(O)C2OC2CC(C)(NCc3ccc(OCCCc4ccccc4)cc3)C(O)C(C)O2)Oc2ccc(cc2Cl)C1O (stereo not drawn) [Compound 3] | 0.25 µg/mL (≈ 0.138 µM) | 1 µg/mL (≈ 0.55 µM) | 123 ng/tail |
| CNC(CC(C)C)C(=O)NC1C(=O)NC(CC(N)=O)C(=O)NC2C(=O)NC3C(=O)NC(C(=O)NC(C(=O)O)c4cc(O)cc(O)c4-c4cc3ccc4O)C(OC3CC(C)(N)C(O)C(C)O3)c3ccc(c(Cl)c3)Oc3cc2cc(c3OC2OC(CO)C(O)C(O)C2OC2CC(C)(NCc3ccc(OCc4ccc(C)cc4)cc3)C(O)C(C)O2)Oc2ccc(cc2Cl)C1O (stereo not drawn) [Compound 4] | 0.5 µg/mL (≈ 0.277 µM) | 2 µg/mL (≈ 1.11 µM) | 101 ng/tail |
| CNC(CC(C)C)C(=O)NC1C(=O)NC(CC(N)=O)C(=O)NC2C(=O)NC3C(=O)NC(C(=O)NC(C(=O)O)c4cc(O)cc(O)c4-c4cc3ccc4O)C(OC3CC(C)(N)C(O)C(C)O3)c3ccc(c(Cl)c3)Oc3cc2cc(c3OC2OC(CO)C(O)C(O)C2OC2CC(C)(NCc3ccc(OCc4ccc(Cl)cc4)cc3)C(O)C(C)O2)Oc2ccc(cc2Cl)C1O (stereo not drawn) [Compound 5] | 0.5 µg/mL (≈ 0.274 µM) | 2 µg/mL (≈ 1.1 µM) | 180 ng/tail |
| CNC(CC(C)C)C(=O)NC1C(=O)NC(CC(N)=O)C(=O)NC2C(=O)NC3C(=O)NC(C(=O)NC(C(=O)O)c4cc(O)cc(O)c4-c4cc3ccc4O)C(OC3CC(C)(N)C(O)C(C)O3)c3ccc(c(Cl)c3)Oc3cc2cc(c3OC2OC(CO)C(O)C(O)C2OC2CC(C)(NCc3ccc(OCCc4ccc(C)cc4)cc3)C(O)C(C)O2)Oc2ccc(cc2Cl)C1O (stereo not drawn) [Compound 6] | 0.25 µg/mL (≈ 0.138 µM) | 8 µg/mL (≈ 4.4 µM) | 121 ng/tail |
| CNC(CC(C)C)C(=O)NC1C(=O)NC(CC(N)=O)C(=O)NC2C(=O)NC3C(=O)NC(C(=O)NC(C(=O)O)c4cc(O)cc(O)c4-c4cc3ccc4O)C(OC3CC(C)(N)C(O)C(C)O3)c3ccc(c(Cl)c3)Oc3cc2cc(c3OC2OC(CO)C(O)C(O)C2OC2CC(C)(NCc3ccc(OCCc4ccc(F)cc4)cc3)C(O)C(C)O2)Oc2ccc(cc2Cl)C1O (stereo not drawn) [Compound 7] | 0.5 µg/mL (≈ 0.275 µM) | 1 µg/mL (≈ 0.549 µM) | 97 ng/tail |
| CNC(CC(C)C)C(=O)NC1C(=O)NC(CC(N)=O)C(=O)NC2C(=O)NC3C(=O)NC(C(=O)NC(C(=O)O)c4cc(O)cc(O)c4-c4cc3ccc4O)C(OC3CC(C)(N)C(O)C(C)O3)c3ccc(c(Cl)c3)Oc3cc2cc(c3OC2OC(CO)C(O)C(O)C2OC2CC(C)(NCc3ccc(OCCc4ccc(Cl)cc4)cc3)C(O)C(C)O2)Oc2ccc(cc2Cl)C1O (stereo not drawn) [Compound 8] | 0.5 µg/mL (≈ 0.272 µM) | 1 µg/mL (≈ 0.544 µM) | 150 ng/tail |
| CNC(CC(C)C)C(=O)NC1C(=O)NC(CC(N)=O)C(=O)NC2C(=O)NC3C(=O)NC(C(=O)NC(C(=O)O)c4cc(O)cc(O)c4-c4cc3ccc4O)C(OC3CC(C)(N)C(O)C(C)O3)c3ccc(c(Cl)c3)Oc3cc2cc(c3OC2OC(CO)C(O)C(O)C2OC2CC(C)(NCc3ccc(OCCc4ccc(Br)cc4)cc3)C(O)C(C)O2)Oc2ccc(cc2Cl)C1O (stereo not drawn) [Compound 9] | 0.25 µg/mL (≈ 0.133 µM) | 1 µg/mL (≈ 0.531 µM) | 129 ng/tail |
| CNC(CC(C)C)C(=O)NC1C(=O)NC(CC(N)=O)C(=O)NC2C(=O)NC3C(=O)NC(C(=O)NC(C(=O)O)c4cc(O)cc(O)c4-c4cc3ccc4O)C(OC3CC(C)(N)C(O)C(C)O3)c3ccc(c(Cl)c3)Oc3cc2cc(c3OC2OC(CO)C(O)C(O)C2OC2CC(C)(NCc3ccc(OCCc4cccc(Br)c4)cc3)C(O)C(C)O2)Oc2ccc(cc2Cl)C1O (stereo not drawn) [Compound 10] | 0.125 µg/mL (≈ 0.0664 µM) | 1 µg/mL (≈ 0.531 µM) | 113 ng/tail |
| CNC(CC(C)C)C(=O)NC1C(=O)NC(CC(N)=O)C(=O)NC2C(=O)NC3C(=O)NC(C(=O)NC(C(=O)O)c4cc(O)cc(O)c4-c4cc3ccc4O)C(OC3CC(C)(N)C(O)C(C)O3)c3ccc(c(Cl)c3)Oc3cc2cc(c3OC2OC(CO)C(O)C(O)C2OC2CC(C)(NCc3ccc(OCCc4ccc(C(F)(F)F)cc4)cc3)C(O)C(C)O2)Oc2ccc(cc2Cl)C1O (stereo not drawn) [Compound 11] | 0.064 µg/mL (≈ 0.0342 µM) | 0.5 µg/mL (≈ 0.267 µM) | 99 ng/tail |
| CNC(CC(C)C)C(=O)NC1C(=O)NC(CC(N)=O)C(=O)NC2C(=O)NC3C(=O)NC(C(=O)NC(C(=O)O)c4cc(O)cc(O)c4-c4cc3ccc4O)C(OC3CC(C)(N)C(O)C(C)O3)c3ccc(c(Cl)c3)Oc3cc2cc(c3OC2OC(CO)C(O)C(O)C2OC2CC(C)(NCc3ccc(OCCc4ccc(OC)cc4)cc3)C(O)C(C)O2)Oc2ccc(cc2Cl)C1O (stereo not drawn) [Compound 12] | 0.5 µg/mL (≈ 0.273 µM) | 16 µg/mL (≈ 8.73 µM) | 188 ng/tail |
| CNC(CC(C)C)C(=O)NC1C(=O)NC(CC(N)=O)C(=O)NC2C(=O)NC3C(=O)NC(C(=O)NC(C(=O)O)c4cc(O)cc(O)c4-c4cc3ccc4O)C(OC3CC(C)(N)C(O)C(C)O3)c3ccc(c(Cl)c3)Oc3cc2cc(c3OC2OC(CO)C(O)C(O)C2OC2CC(C)(NCc3ccc(OCCCc4ccc(Cl)cc4)cc3)C(O)C(C)O2)Oc2ccc(cc2Cl)C1O (stereo not drawn) [Compound 13] | 0.5 µg/mL (≈ 0.27 µM) | 2 µg/mL (≈ 1.08 µM) | 164 ng/tail |
| CNC(CC(C)C)C(=O)NC1C(=O)NC(CC(N)=O)C(=O)NC2C(=O)NC3C(=O)NC(C(=O)NC(C(=O)O)c4cc(O)cc(O)c4-c4cc3ccc4O)C(OC3CC(C)(N)C(O)C(C)O3)c3ccc(c(Cl)c3)Oc3cc2cc(c3OC2OC(CO)C(O)C(O)C2OC2CC(C)(NCc3ccc(SCc4ccccc4)cc3)C(O)C(C)O2)Oc2ccc(cc2Cl)C1O (stereo not drawn) [Compound 14] | 0.032 µg/mL (≈ 0.0177 µM) | 8 µg/mL (≈ 4.43 µM) | 82 ng/tail |
| CNC(CC(C)C)C(=O)NC1C(=O)NC(CC(N)=O)C(=O)NC2C(=O)NC3C(=O)NC(C(=O)NC(C(=O)O)c4cc(O)cc(O)c4-c4cc3ccc4O)C(OC3CC(C)(N)C(O)C(C)O3)c3ccc(c(Cl)c3)Oc3cc2cc(c3OC2OC(CO)C(O)C(O)C2OC2CC(C)(NCc3ccc(SCc4ccc(Cl)cc4)cc3)C(O)C(C)O2)Oc2ccc(cc2Cl)C1O (stereo not drawn) [Compound 15] | 0.032 µg/mL (≈ 0.0174 µM) | 1 µg/mL (≈ 0.544 µM) | 76 ng/tail |
| CNC(CC(C)C)C(=O)NC1C(=O)NC(CC(N)=O)C(=O)NC2C(=O)NC3C(=O)NC(C(=O)NC(C(=O)O)c4cc(O)cc(O)c4-c4cc3ccc4O)C(OC3CC(C)(N)C(O)C(C)O3)c3ccc(c(Cl)c3)Oc3cc2cc(c3OC2OC(CO)C(O)C(O)C2OC2CC(C)(NCc3ccc(SCCc4ccc(Cl)cc4)cc3)C(O)C(C)O2)Oc2ccc(cc2Cl)C1O (stereo not drawn) [Compound 16] | 0.032 µg/mL (≈ 0.0173 µM) | 0.5 µg/mL (≈ 0.27 µM) | 72 ng/tail |
| CNC(CC(C)C)C(=O)NC1C(=O)NC(CC(N)=O)C(=O)NC2C(=O)NC3C(=O)NC(C(=O)NC(C(=O)O)c4cc(O)cc(O)c4-c4cc3ccc4O)C(OC3CC(C)(N)C(O)C(C)O3)c3ccc(c(Cl)c3)Oc3cc2cc(c3OC2OC(CO)C(O)C(O)C2OC2CC(C)(NCc3ccc(NCc4ccccc4)cc3)C(O)C(C)O2)Oc2ccc(cc2Cl)C1O (stereo not drawn) [Compound 17] | 0.5 µg/mL (≈ 0.28 µM) | 1 µg/mL (≈ 0.559 µM) | 139 ng/tail |
